PubChem BioAssay AID720570 (Broad Institute, 2013)

Each compound was assayed on TC71 Ewing sarcoma viability, CellTiter-Glo ATP, 72 h (assay: cytotoxicity in EWS/Fli1-dependent TC71 cells – cell-based, luminescence, cherry-picked samples, retest, confirmation (AID 720570)).

Compound | AC35
O=C(CCc1ccccc1)NC(c1cccs1)c1cc(Cl)c2cccnc2c1O (stereo not drawn) | 2.81 µM
C[C@@H]1CN([C@@H](C)CO)C(=O)c2cc(N(C)C)ccc2O[C@H]1CN(C)Cc1ccc(C(=O)Nc2ccccc2N)cc1 | 22 µM
CC(C)(C)C(=O)Cn1ncc(Cl)c(Cl)c1=O | 7.6 µM
CCCCc1c(Cc2ccccc2)ncn1CCc1ccccc1OC | 14.4 µM
COc1cc(C(=O)N2CCC(N3CCN(C)CC3)CC2)ccc1Nc1ncc2c(n1)N(C)c1ccccc1C(=O)N2C | 11.4 µM
O=C(O)c1ccc(N/N=C/c2ccc3c(c2)OCO3)cc1 | 9.45 µM
CCN1/C(=C/C(C)=C/c2sc3ccccc3[n+]2CC)Sc2ccccc21 | 0.951 µM
O=c1[nH]c(=O)n([C@H]2C[C@H](O)[C@@H](CO)O2)cc1C(F)(F)F | 2.91 µM
COc1cccc(-c2cc(NC=O)c3ncc(-c4ccc(C(C)=O)cc4)n3c2)c1 | 1.78 µM
CC(=O)Nc1cccc(-c2ccnc3c2CC(C)(C(=O)NCc2ccc(N(C)C)cc2)O3)c1 (stereo not drawn) | 7.01 µM
COC1C(O)C(C)OC(OC2CCC3(C)C(CCC4C3C(O)CC3(C)C(C5=CC(=O)OC5)CCC43O)C2)C1O (stereo not drawn) | 0.699 µM
COCC(=O)Nc1ccc2c(c1)[C@@H]1C[C@@H](CC(=O)NCc3ccc(-c4ccccc4)cc3)O[C@@H](CO)[C@@H]1O2 | 12.9 µM
COc1ccc([Si](C)(C)[C@H]2[C@H](CCO)O[C@@]3(C(=O)N(c4ccccc4)c4ccccc43)[C@@H]2C)cc1 | 12.8 µM
C[C@@H]1CN([C@@H](C)CO)C(=O)c2cccc(NS(=O)(=O)c3ccc(F)cc3)c2O[C@@H]1CN(C)Cc1ccc(C(=O)Nc2ccccc2N)cc1 | 8.22 µM
C[C@H](CO)N1C[C@H](C)[C@H](CN(C)CC2CCCCC2)Oc2ccc(NC(=O)CCCCCC(=O)Nc3ccccc3N)cc2CC1=O | 18.9 µM
Cc1nc(N)nc(N)c1-c1ccc(Cl)c(Cl)c1 | 0.714 µM
COc1cccc(Sc2ccccc2/C=N/NC(N)=O)c1 | 3.12 µM
C[C@@H]1CN([C@@H](C)CO)C(=O)Cc2cc(NC(=O)Nc3ccc(C(F)(F)F)cc3)ccc2O[C@@H]1CN(C)Cc1ccc(C(=O)Nc2ccccc2N)cc1 | 10.4 µM
Nc1nc(N)c2c(ccc3nccc32)[nH]1 | 3.24 µM
CC[C@@H]1C[C@H]2CC[C@H](O2)[C@H](C)C(=O)O[C@@H](C)C[C@@H]2CC[C@@H](O2)[C@@H](C)C(=O)O[C@H](C)C[C@H]2CC[C@H](O2)[C@H](C)C(=O)O[C@@H](C)C[C@@H]2CC[C@@H](O2)[C@@H](C)C(=O)O1 | 0.0639 µM
O=C(/C=C/c1cc(Br)ccc1O)c1ccco1 | 16.7 µM
C[C@@H]1O[C@@H](O[C@@H]2C=C3CCC4C(CC[C@]5(C)[C@@H](c6ccc(=O)oc6)CC[C@]45O)[C@@]3(C)CC2)[C@H](O)[C@H](O)[C@H]1O (stereo partly drawn) | 0.0271 µM

Compound | AC35
Cc1cc(-c2nc3ccccc3s2)ccc1N | 17.7 µM
N#CC1C=Cc2c(ccc3ccccc23)N1C(=O)c1ccccc1 (stereo not drawn) | 1.45 µM
O=C1NC(=O)N(Cc2ccc(F)cc2)C(=O)/C1=C\C=C\c1ccco1 | 9.09 µM
COc1ccc(CC(N)c2csc(NC(=O)Nc3cccc(C(F)(F)F)c3)n2)cc1 (stereo not drawn) | 19.1 µM
O=c1c(Cl)cc(Cl)nn1-c1ccccc1 | 13 µM
C#CCOCCOCCOCCNc1nc(N2CCN(C(=O)CCCCCCCCCCNC(=O)Cn3cc(C[C@@H](C)O)nn3)CC2)nc(N2CCN(C(=O)CCCCCCCCCCNC(=O)[C@H](CO)n3cc(CCCSC)nn3)CC2)n1 | 21.5 µM
CCCC[C@@H]1Cc2[nH][nH]c(=O)c2[C@H](c2ccc3ccccc3c2)O1 | 15.2 µM
C[C@H](CO)N1C[C@H](C)[C@@H](CN(C)Cc2ccc(Oc3ccccc3)cc2)Oc2ccc(NS(=O)(=O)c3ccc(Cl)cc3)cc2CC1=O | 13 µM
COc1ccccc1C(CCNCc1ccc(N(C)C)cc1)c1ccc(OC(C)C)cc1 (stereo not drawn) | 10.9 µM
C[C@@H]1O[C@@H](O[C@H]2C[C@@H](O)[C@]3(CO)[C@H]4[C@H](O)C[C@]5(C)[C@@H](C6COC(=O)C6)CC[C@]5(O)[C@@H]4CC[C@]3(O)C2)[C@H](O)[C@H](O)[C@H]1O (stereo partly drawn) | 4.19 µM
N#CC1=C(N)Oc2cc(N)ccc2C1c1cccc(Br)c1 (stereo not drawn) | 0.845 µM
COc1ccc(S(=O)(=O)Nc2cccc3c2O[C@H](CN(C)Cc2ccc(C(=O)Nc4ccccc4N)cc2)[C@H](C)CN([C@@H](C)CO)C3=O)cc1 | 5.62 µM
CC1(C)N=C(N)N=C(N)N1c1ccc(OCCCOc2ccccc2)c(Cl)c1 | 4.91 µM
COc1ccc(-c2cnc3c(NC=O)cc(-c4ccccc4OC)cn23)cc1OC | 0.147 µM
CCOc1ccc2nc(NC3=NC(c4ccc(OC)cc4)CC(=O)N3)nc(C)c2c1 (stereo not drawn) | 20.9 µM
C[C@@H]1CN([C@H](C)CO)C(=O)c2cc(N(C)C)ccc2O[C@H]1CN(C)Cc1ccc(C(=O)Nc2ccccc2N)cc1 | 12.5 µM
COc1ccc(C(=O)NCCNc2nc3cc(C)cc(C)c3cc2C#N)c(OC)c1 | 15.9 µM
Cc1ccc(S(=O)(=O)Nc2ccc3c(c2)C(=O)N([C@H](C)CO)C[C@H](C)[C@@H](CN(C)Cc2ccc(C(F)(F)F)cc2)OCCCC[C@H](C)O3)cc1 | 12.1 µM
Cc1cc(C(=O)Nc2ccc3c(c2)C(=O)N(C)[C@@H]2CC[C@H](CC(=O)N[C@H](C)c4ccccc4)O[C@H]2CO3)no1 | 14 µM
Nc1nc(N)c(-c2cccc(C(F)(F)F)c2)c(Cc2cccc(C(F)(F)F)c2)n1 | 4.27 µM
Oc1c(Cl)cc(Cl)c2cccnc12 | 20.7 µM
